Patent US20230278972A1, “SUBSTITUTED HALOALKYL SULFONANILIDE HERBICIDES” (FMC Corporation, priority 2020, published 2023)

Experiments:
Type in all cases: in vivo
[1] = test system: barnyardgrass (Echinochloa crus-galli); experiment: Test A preemergence, barnyardgrass; settings: Preemergence; for Plant response rating, Barnyardgrass: 0 to 100 scale (0 no effect, 100 complete control); for Barnyardgrass plant response rating: visual injury on 0 to 100 scale (0 no effect, 100 complete control), approximately 10 days
Outline: (§1)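 Directed soil spray at planting gave the preemergence treatment, while foliar application to one- to two-leaf seedlings (2–10 cm) gave the postemergence one; pots held a loam and sand mixture and chemicals were carried in a non-phytotoxic solvent with surfactant.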

[2] = test system: kochia (Bassia scoparia); experiment: Test A preemergence, kochia; settings: Preemergence; for Plant response rating, Kochia: 0 to 100 scale (0 no effect, 100 complete control); for Kochia plant response rating: visual injury on 0 to 100 scale (0 no effect, 100 complete control), approximately 10 days
Outline: as §1

[3] = test system: ragweed (common ragweed, Ambrosia artemisiifolia); experiment: Test A preemergence, ragweed; settings: Preemergence; for Plant response rating, Ragweed: 0 to 100 scale (0 no effect, 100 complete control); for Ragweed plant response rating: visual injury on 0 to 100 scale (0 no effect, 100 complete control), approximately 10 days
Outline: as §1

[4] = test system: Ryegrass, Italian (Italian ryegrass, Lolium multiflorum); experiment: Test A preemergence, Ryegrass, Italian; settings: Preemergence; for Plant response rating, Ryegrass, Italian: 0 to 100 scale (0 no effect, 100 complete control); for Ryegrass, Italian plant response rating: visual injury on 0 to 100 scale (0 no effect, 100 complete control), approximately 10 days
Outline: as §1

[5] = test system: Foxtail, Giant (giant foxtail, Setaria faberi); experiment: Test A preemergence, Foxtail, Giant; settings: Preemergence; for Plant response rating, Foxtail, Giant: 0 to 100 scale (0 no effect, 100 complete control); for Foxtail, Giant plant response rating: visual injury on 0 to 100 scale (0 no effect, 100 complete control), approximately 10 days
Outline: as §1

[6] = test system: pigweed (Amaranthus retroflexus); experiment: Test A preemergence, pigweed; settings: for Plant response rating, Pigweed: 0 to 100 scale (0 no effect, 100 complete control); for Pigweed plant response rating: visual injury on 0 to 100 scale (0 no effect, 100 complete control), approximately 10 days
Outline: (§2)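 Postemergence ratings come from foliar sprays onto one- to two-leaf plants of 2 to 10 cm grown in loam/sand; preemergence ratings come from a directed spray onto the soil of newly seeded pots. Formulation was a surfactant-containing non-phytotoxic solvent blend.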

[7] = test system: barnyardgrass (Echinochloa crus-galli); experiment: Test A postemergence, barnyardgrass; settings: Postemergence; for Barnyardgrass plant response rating: 500 g ai/ha, visual injury vs untreated controls after approx. 10 days
Outline: as §2

[8] = test system: kochia (Bassia scoparia); experiment: Test A postemergence, kochia; settings: Postemergence; for Kochia plant response rating: 500 g ai/ha, visual injury vs untreated controls after approx. 10 days
Outline: as §1

[9] = test system: ragweed (common ragweed, Ambrosia artemisiifolia); experiment: Test A postemergence, ragweed; settings: Postemergence; for Ragweed plant response rating: 500 g ai/ha, visual injury vs untreated controls after approx. 10 days
Outline: as §1

[10] = test system: Ryegrass, Italian (Italian ryegrass, Lolium multiflorum); experiment: Test A postemergence, Ryegrass, Italian; settings: Postemergence; for Ryegrass, Italian plant response rating: 500 g ai/ha, visual injury vs untreated controls after approx. 10 days
Outline: as §1

[11] = test system: Foxtail, Giant (giant foxtail, Setaria faberi); experiment: Test A postemergence, Foxtail, Giant; settings: Postemergence; for Foxtail, Giant plant response rating: 500 g ai/ha, visual injury vs untreated controls after approx. 10 days
Outline: as §1

[12] = test system: pigweed (Amaranthus retroflexus); experiment: Test A postemergence, pigweed; settings: Postemergence; for Pigweed plant response rating: 500 g ai/ha, visual injury vs untreated controls after approx. 10 days
Outline: as §1

[13] = test system: wheat (Triticum aestivum); experiment: Test A postemergence, wheat; settings: Postemergence; for Wheat plant response rating: 500 g ai/ha, visual injury vs untreated controls after approx. 10 days
Outline: as §2

[14] = test system: corn (Zea mays); experiment: Test A postemergence, corn; settings: Postemergence; for Corn plant response rating: 500 g ai/ha, visual injury vs untreated controls after approx. 10 days
Outline: as §1

[15] = test system: blackgrass (Alopecurus myosuroides); experiment: Test A postemergence, blackgrass; settings: Postemergence; for Blackgrass plant response rating: 500 g ai/ha, visual injury vs untreated controls after approx. 10 days
Outline: as §1

[16] = test system: galium (catchweed bedstraw, Galium aparine); experiment: Test A postemergence, galium; settings: Postemergence; for Galium plant response rating: 500 g ai/ha, visual injury vs untreated controls after approx. 10 days
Outline: as §2

[17] = 125 g ai/ha, visual injury, approx. 10 days
[18] = 125 g ai/ha, 0 to 100 scale (0 no effect, 100 complete control)
[19] = 0 to 100 scale (0 no effect, 100 complete control)
[20] = 125 g ai/ha, visual injury approx. 10 days, 0 to 100 scale (0 no effect, 100 complete control)
[21] = 31 g ai/ha, visual injury, approx. 10 days
[22] = 31 g ai/ha, visual injury on 0 to 100 scale (0 no effect, 100 complete control), approx. 10 days

`Cc1cc(C)c(C(=O)N2CCC3(CCCC3)C2)cc1NS(=O)(=O)C(F)(F)F` [Compound 225] was tested. Which “Plant response rating, Barnyardgrass” value [1, 17] did it give?
The value was 70.

And the “Plant response rating, Barnyardgrass” value ([1]; 500 g ai/ha)?
Its value is 90.

And the “Plant response rating, Kochia” value [2, 17]?
The value was 0.

What about the “Plant response rating, Kochia” value ([2]; 500 g ai/ha) of the same molecule?
The value was 40.

And the “Plant response rating, Ragweed” value [3, 17]?
The value was 30.

And the “Plant response rating, Ragweed” value ([3]; 500 g ai/ha)?
The value was 90.

What about the “Plant response rating, Ryegrass, Italian” value [4, 17] of the same molecule?
The value was 70.

What about the “Plant response rating, Ryegrass, Italian” value ([4]; 500 g ai/ha) of the same molecule?
Its value is 100.

What about the “Plant response rating, Foxtail, Giant” value [5, 17] of the same molecule?
Its value is 90.

And the “Plant response rating, Foxtail, Giant” value ([5]; 500 g ai/ha)?
Its value is 100.

What about the “Plant response rating, Pigweed” value [6, 17] of the same molecule?
The value was 70.

And the “Plant response rating, Pigweed” value ([6]; 500 g ai/ha)?
Its value is 100.

What about the “Plant response rating, Barnyardgrass” value [7, 18] of the same molecule?
The value was 0.

What about the “Barnyardgrass plant response rating” value [7, 19] of the same molecule?
Its value is 10.

And the “Plant response rating, Kochia” value [8, 18]?
Its value is 0.

And the “Kochia plant response rating” value [8, 19]?
The value was 10.

And the “Plant response rating, Ragweed” value [9, 18]?
The value was 20.

And the “Ragweed plant response rating” value [9, 19]?
Its value is 40.

And the “Plant response rating, Ryegrass, Italian” value [10, 18]?
The value was 60.

And the “Ryegrass, Italian plant response rating” value [10, 19]?
The value was 40.

What about the “Plant response rating, Foxtail, Giant” value [11, 18] of the same molecule?
Its value is 0.

What about the “Foxtail, Giant plant response rating” value [11, 19] of the same molecule?
The value was 0.

What about the “Plant response rating, Pigweed” value [12, 18] of the same molecule?
The value was 90.

What about the “Pigweed plant response rating” value [12, 19] of the same molecule?
Its value is 30.

What about the “Plant response rating, Wheat” value [13, 18] of the same molecule?
The value was 0.

And the “Wheat plant response rating” value [13, 19]?
Its value is 0.

What about the “Plant response rating, Corn” value [14, 18] of the same molecule?
Its value is 0.

And the “Corn plant response rating” value [14, 19]?
Its value is 0.

What about the “Plant response rating, Blackgrass” value [15, 18] of the same molecule?
The value was 0.

And the “Blackgrass plant response rating” value [15, 19]?
Its value is 20.

What about the “Plant response rating, Galium” value [16, 18] of the same molecule?
The value was 50.

What about the “Galium plant response rating” value [16, 19] of the same molecule?
Its value is 80.

With `Cc1cc(-c2cc(NS(=O)(=O)C(F)(F)F)c(C)cc2C)c(=O)n(C)n1` [Compound 62] as the molecule, how does the “Barnyardgrass plant response rating” value ([1]; 125 g ai/ha) read?
Its value is 100.

And the “Plant response rating, Barnyardgrass” value ([1]; 500 g ai/ha)?
Its value is 100.

What about the “Kochia plant response rating” value ([2]; 125 g ai/ha) of the same molecule?
Its value is 70.

And the “Plant response rating, Kochia” value ([2]; 500 g ai/ha)?
Its value is 90.

What about the “Ragweed plant response rating” value ([3]; 125 g ai/ha) of the same molecule?
Its value is 20.

What about the “Plant response rating, Ragweed” value ([3]; 500 g ai/ha) of the same molecule?
The value was 80.

And the “Ryegrass, Italian plant response rating” value ([4]; 125 g ai/ha)?
Its value is 40.

What about the “Plant response rating, Ryegrass, Italian” value ([4]; 500 g ai/ha) of the same molecule?
Its value is 100.

What about the “Foxtail, Giant plant response rating” value ([5]; 125 g ai/ha) of the same molecule?
Its value is 100.

What about the “Plant response rating, Foxtail, Giant” value ([5]; 500 g ai/ha) of the same molecule?
The value was 100.

What about the “Pigweed plant response rating” value ([6]; 125 g ai/ha) of the same molecule?
The value was 50.

And the “Plant response rating, Pigweed” value ([6]; 500 g ai/ha)?
Its value is 90.

And the “Plant response rating, Barnyardgrass” value [7, 20]?
Its value is 0.

What about the “Barnyardgrass plant response rating” value [7, 19] of the same molecule?
Its value is 70.

What about the “Plant response rating, Kochia” value [8, 20] of the same molecule?
Its value is 20.

And the “Kochia plant response rating” value [8, 19]?
The value was 40.

What about the “Plant response rating, Ragweed” value [9, 20] of the same molecule?
The value was 0.

What about the “Ragweed plant response rating” value [9, 19] of the same molecule?
The value was 20.

What about the “Plant response rating, Ryegrass, Italian” value [10, 20] of the same molecule?
The value was 0.

And the “Ryegrass, Italian plant response rating” value [10, 19]?
The value was 20.

And the “Plant response rating, Foxtail, Giant” value [11, 20]?
The value was 0.

And the “Foxtail, Giant plant response rating” value [11, 19]?
Its value is 80.

And the “Plant response rating, Pigweed” value [12, 20]?
Its value is 20.

And the “Pigweed plant response rating” value [12, 19]?
Its value is 40.

And the “Plant response rating, Wheat” value [13, 20]?
The value was 0.

What about the “Wheat plant response rating” value [13, 19] of the same molecule?
The value was 60.

What about the “Plant response rating, Corn” value [14, 20] of the same molecule?
The value was 0.

And the “Corn plant response rating” value [14, 19]?
Its value is 0.

What about the “Plant response rating, Blackgrass” value [15, 20] of the same molecule?
The value was 0.

What about the “Blackgrass plant response rating” value [15, 19] of the same molecule?
Its value is 50.

And the “Plant response rating, Galium” value [16, 20]?
Its value is 70.

What about the “Galium plant response rating” value [16, 19] of the same molecule?
The value was 80.

What does the source list for `Cc1cc(C)c(C2=NOC3(C2)CC(C)CC(C)C3)cc1NS(=O)(=O)C(F)(F)F` (single isomer, unassigned) [Compound 167]?
Plant response rating, Barnyardgrass [1, 21]: 0; Barnyardgrass plant response rating ([1]; 125 g ai/ha): 20; Plant response rating, Kochia [2, 21]: 30; Kochia plant response rating ([2]; 125 g ai/ha): 40; Plant response rating, Ragweed [3, 21]: 0; Ragweed plant response rating ([3]; 125 g ai/ha): 0; Plant response rating, Ryegrass, Italian [4, 21]: 30; Ryegrass, Italian plant response rating ([4]; 125 g ai/ha): 60; Plant response rating, Foxtail, Giant [5, 21]: 0; Foxtail, Giant plant response rating ([5]; 125 g ai/ha): 10; Plant response rating, Pigweed [6, 21]: 0; Pigweed plant response rating ([6]; 125 g ai/ha): 20; Plant response rating, Barnyardgrass [7, 22]: 10; Plant response rating, Barnyardgrass [7, 18]: 60; Plant response rating, Kochia [8, 22]: 10; Plant response rating, Kochia [8, 18]: 40; Plant response rating, Ragweed [9, 22]: 0; Plant response rating, Ragweed [9, 18]: 20; Plant response rating, Ryegrass, Italian [10, 22]: 0; Plant response rating, Ryegrass, Italian [10, 18]: 20; Plant response rating, Foxtail, Giant [11, 22]: 0; Plant response rating, Foxtail, Giant [11, 18]: 10; Plant response rating, Pigweed [12, 22]: 20; Plant response rating, Pigweed [12, 18]: 70; Plant response rating, Wheat [13, 22]: 0; Plant response rating, Wheat [13, 18]: 30; Plant response rating, Corn [14, 22]: 0; Plant response rating, Corn [14, 18]: 10; Plant response rating, Blackgrass [15, 22]: 0; Plant response rating, Blackgrass [15, 18]: 20; Plant response rating, Galium [16, 22]: 0; Plant response rating, Galium [16, 18]: 80
